Some test systems named below: SK-MEL-28 melanoma; SNB-75 CNS; MCF7 breast; SF-295 CNS; T-47D breast; HCC-2998 colon; LOX IMVI melanoma; OVCAR-3 ovarian; MDA-MB-435; CCRF-CEM leukemia.
Assay in all cases: DTP human tumour cell line panel, 48 h

“And” between values parts separate entries of the source, which are not always exact repeats. Equal values may be shown once.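 How tested: cells in 96-well plates exposed to compound for 48 hours at five concentrations. GI50 = concentration required for 50% inhibition of growth. Definition used: TGI = concentration required for complete inhibition of growth.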

The GI50 is the concentration that inhibits growth by half. As usually defined, the TGI is the concentration at which net growth stops. A low value points to greater sensitivity of the cells. Regarding `CNS(=O)(=O)OCC1OC(n2cnc3c(N)ncnc32)C(O)C1O` (centres undefined), the GI50 in the test on SK-MEL-28 melanoma, in the test on SNB-75 CNS, in the test on MCF7 breast, in the test with SF-295 CNS, in the test on T-47D breast and with HCC-2998 colon was > 100 µM each time. Also, the GI50 in the test on LOX IMVI melanoma, in the test on OVCAR-3 ovarian, in the test with MDA-MB-435 and in the test on CCRF-CEM leukemia was > 100 µM throughout. Further, the TGI in the test on SK-MEL-28 melanoma, with SNB-75 CNS, in the test with MCF7 breast, in the test on SF-295 CNS, in the test on T-47D breast and in the test on HCC-2998 colon was > 100 µM each time. Moreover, the TGI in the test on LOX IMVI melanoma, in the test with OVCAR-3 ovarian, in the test with MDA-MB-435 and with CCRF-CEM leukemia was > 100 µM in each case.
For the compound `CN1CCN(CCOc2cc(OC3CCOCC3)c3c(Nc4c(Cl)ccc5c4OCO5)ncnc3c2)CC1`, the GI50 was 13.6 µM and > 10 µM in the test with SK-MEL-28 melanoma; 0.206 µM and 0.209 µM with SNB-75 CNS; 4.72 µM and > 10 µM in the test with MCF7 breast; 5.83 µM and > 10 µM with SF-295 CNS; 1.23 µM and 0.286 µM in the test on T-47D breast; 17.7 µM and > 10 µM with HCC-2998 colon. For the same compound, the GI50 is 1.45 µM and 0.971 µM with LOX IMVI melanoma; 3.7 µM and 5.55 µM in the test with OVCAR-3 ovarian; 13.5 µM and > 10 µM in the test on MDA-MB-435; 21.5 µM and > 10 µM in the test on CCRF-CEM leukemia. Also, the TGI is 27.2 µM and > 10 µM in the test on SK-MEL-28 melanoma; 3.47 µM and > 10 µM with SNB-75 CNS; 27.4 µM and > 10 µM in the test with MCF7 breast; 25.3 µM and > 10 µM in the test with SF-295 CNS; 22.3 µM and > 10 µM with T-47D breast; 37.7 µM and > 10 µM in the test with HCC-2998 colon. The TGI in the test with LOX IMVI melanoma was 16.2 µM and > 10 µM; in the test on OVCAR-3 ovarian, 22.2 µM and > 10 µM; in the test on MDA-MB-435, 27.2 µM and > 10 µM; with CCRF-CEM leukemia it was 76.3 µM and > 10 µM.
For the compound `CCOC(=O)/C=C/C(=O)[C@H](CC(C)C)NC(=O)[C@H](Cc1ccccc1)NC(=O)OCc1ccccc1`, the GI50 in the test with SK-MEL-28 melanoma is 3.12 µM; in the test on SNB-75 CNS, 12.6 µM; with MCF7 breast it was 1.73 µM; with SF-295 CNS, 16.2 µM; in the test on T-47D breast it was 2.1 µM; in the test with HCC-2998 colon, 15.6 µM. The GI50 in the test with LOX IMVI melanoma was 1.76 µM; in the test on OVCAR-3 ovarian, 3.19 µM; in the test with MDA-MB-435 it was 6.58 µM; with CCRF-CEM leukemia, 2.58 µM. The TGI in the test on SK-MEL-28 melanoma turned out to be 12 µM; in the test on SNB-75 CNS it was 25.4 µM; in the test with MCF7 breast, 4.8 µM; with SF-295 CNS, 29.8 µM; in the test on T-47D breast, 4.66 µM; with HCC-2998 colon it was 30.1 µM. Moreover, the TGI with LOX IMVI melanoma came to 3.39 µM; in the test on OVCAR-3 ovarian it was 10.4 µM; with MDA-MB-435 it was 20.1 µM; with CCRF-CEM leukemia, 18.8 µM.
As for `O=c1oc2ccc(-c3ccc(F)cc3F)cc2c(=O)n1-c1ccc(Cl)c(C(F)(F)F)c1`, the GI50 is 2.05 µM with SK-MEL-28 melanoma; 1.7 µM with SNB-75 CNS; 2.45 µM in the test with MCF7 breast; 1.81 µM in the test with SF-295 CNS; 0.585 µM in the test on T-47D breast; 2.41 µM with HCC-2998 colon. The GI50 in the test on LOX IMVI melanoma was 2.18 µM; with OVCAR-3 ovarian it was 3.17 µM; with MDA-MB-435, 3.07 µM; in the test with CCRF-CEM leukemia, 2.63 µM. The TGI in the test on SK-MEL-28 melanoma was 5.77 µM; with SNB-75 CNS, 4.2 µM; in the test with MCF7 breast it was > 100 µM; with SF-295 CNS, 3.62 µM; with T-47D breast it was 4.34 µM; with HCC-2998 colon it was 6.03 µM. Further, the TGI was 4.91 µM in the test with LOX IMVI melanoma, > 100 µM with OVCAR-3 ovarian, 9.83 µM in the test on MDA-MB-435 and 8.75 µM in the test on CCRF-CEM leukemia.
Consider `O=C(CC(=O)c1cccc(Cl)c1)c1cccc(Cl)c1`, for which the GI50 with SK-MEL-28 melanoma is 2.7 µM; in the test with SNB-75 CNS, 3.09 µM; with MCF7 breast it was 1.72 µM; in the test on SF-295 CNS it was 1.01 µM; in the test with T-47D breast, 2.53 µM; in the test with HCC-2998 colon, 5.31 µM. Also, the GI50 was 1.37 µM with LOX IMVI melanoma, 1.67 µM with OVCAR-3 ovarian, 3.18 µM in the test with MDA-MB-435 and 0.874 µM in the test with CCRF-CEM leukemia. For the same compound, the TGI in the test on SK-MEL-28 melanoma, with SNB-75 CNS, in the test on MCF7 breast, in the test with SF-295 CNS, in the test with T-47D breast and with HCC-2998 colon was > 100 µM in each case. Further, the concentration for total growth inhibition (TGI) is > 100 µM with LOX IMVI melanoma, 6.09 µM with OVCAR-3 ovarian, > 100 µM with MDA-MB-435 and > 100 µM with CCRF-CEM leukemia.
As for `Oc1[nH]c2ccccc2c1N=Nc1c(F)c(F)c(F)c(F)c1F`, the TGI in the test with SK-MEL-28 melanoma is > 100 µM; in the test with SNB-75 CNS, > 100 µM; in the test with MCF7 breast, > 100 µM; with SF-295 CNS it was > 100 µM; in the test with T-47D breast it was > 74.7 µM; in the test on HCC-2998 colon, > 100 µM. Further, the TGI in the test with LOX IMVI melanoma is > 66.7 µM; in the test on OVCAR-3 ovarian, > 100 µM; with MDA-MB-435, > 100 µM; with CCRF-CEM leukemia, 16.5 µM.
As for `O=C(Nc1ccccc1O)c1ccc(NS(=O)(=O)c2cccc3cccnc23)cc1`, the GI50 was 0.834 µM with SK-MEL-28 melanoma; 0.511 µM with SNB-75 CNS; 0.941 µM in the test with MCF7 breast; 1.09 µM in the test with SF-295 CNS; 0.559 µM with T-47D breast; 1.59 µM in the test with HCC-2998 colon. Further, the GI50 in the test on LOX IMVI melanoma was 1.23 µM; with OVCAR-3 ovarian, 1.42 µM; in the test with MDA-MB-435 it was 0.806 µM; in the test on CCRF-CEM leukemia, 1.05 µM. For the same compound, the TGI is 4.91 µM in the test with SK-MEL-28 melanoma; 8.03 µM in the test on SNB-75 CNS; > 18.2 µM in the test with MCF7 breast; 4.77 µM in the test with SF-295 CNS; 4.16 µM in the test on T-47D breast; 5.23 µM in the test on HCC-2998 colon. In addition, the TGI with LOX IMVI melanoma was 4.8 µM; with OVCAR-3 ovarian, 5.61 µM; in the test with MDA-MB-435, 4.86 µM; with CCRF-CEM leukemia, > 25 µM.
Turning to `CN(C)c1ccc(/C=c2/c3ccccc3n3c2c2cc(F)ccc2[n+]3C)cc1`, the GI50 was 3.55 µM in the test on SK-MEL-28 melanoma; 8.07 µM in the test with SNB-75 CNS; 6.57 µM in the test with MCF7 breast; 6.31 µM with SF-295 CNS; 3.42 µM with T-47D breast; 11.7 µM with LOX IMVI melanoma. For the same compound, the GI50 in the test on OVCAR-3 ovarian is 2.98 µM; in the test on MDA-MB-435, 3.84 µM; in the test with CCRF-CEM leukemia, 2.79 µM. In addition, the TGI stood at 14.1 µM in the test on SK-MEL-28 melanoma; 20.3 µM with SNB-75 CNS; 32.1 µM with MCF7 breast; 19.6 µM with SF-295 CNS; 16.7 µM in the test with T-47D breast; 11.4 µM in the test on HCC-2998 colon. Also, the TGI is > 100 µM with LOX IMVI melanoma, 12.5 µM in the test on OVCAR-3 ovarian, 11.9 µM with MDA-MB-435 and 46.1 µM in the test with CCRF-CEM leukemia.

These data come from PubChem BioAssay (NCI).
